According to publication PMC3857224, “Inhibition of DNA Glycosylases via Small Molecule Purine Analogs” (PLoS ONE, 2013):

Assays:
[1] = target: T1, T4 pyrimidine dimer DNA glycosylase (T4-pdg) (Enterobacteria phage T4, UniProt P04418); experiment: UV-irradiated plasmid nicking assay; type: biochemical; details: 40 µM inhibitor, 15 min; read-out: inhibition of T4-pdg activity (reduction in nicks per plasmid)
T1 construct: made in house
Method: T4-pdg activity was assayed by a plasmid nicking assay with minor modifications of a previously described method, [27]. Supercoiled pBR322 plasmid was irradiated with 254 nm ultraviolet (UV) light (100 µW/cm^2) for 98 sec to produce approximately 10 thymine dimers per plasmid molecule. Irradiated plasmid (10 nM) was then incubated in the presence or absence of inhibitors with 130 pM active T4-pdg, as assessed by […] trapping. Reactions were started by addition of DNA, incubated for 15 min at 37°C in reaction buffer (10 mM Tris pH 8.0, 1 mM EDTA, 125 mM NaCl, 100 µg/ml BSA), and stopped by the addition of SDS to a final concentration of 1%. Plasmid DNAs (form I, II and III corresponding to supercoiled, nicked circular and linear, respectively) were resolved on a 0.9% agarose gel and visualized with 0.5 µg/ml ethidium bromide. Gel images were captured on a ChemiImager 5500 (Alpha Innotech, Santa Clara, CA) gel documentation system and densitometry was performed using Image J software. Percent remaining form I DNA was calculated by applying a factor of 1.42 to the form I band intensity and then dividing form I by the sum of form I, II and III. The number of nicks per molecule were estimated based on a Poisson distribution, in which nicks per molecule = -ln (mass fraction of form I DNA remaining), and inhibition of activity was measured as the percentage reduction in the number of nicks per plasmid molecule compared to reactions without inhibitor.
In humans, several glycosylases, including OGG1, NTH1, NEIL2, and NEIL3 may participate in the removal of a wide variety of oxidized bases. […] To address this question, assays were designed to measure inhibition of OGG1 and NTH1, as well as the Escherichia coli glycosylase-AP lyase, FPG. In order to compare the relative efficiencies of inhibition between NEIL1 and these other glycosylase/AP lyases, it was necessary to identify common DNA substrates and pair-wise analyze inhibition data. To compare inhibition of NEIL1 versus NTH1, oligodeoxynucleotides were synthesized that contained a site-specific thymine glycol (TG) adduct, while comparative inhibition data for OGG1 and FPG were collected using an oligodeoxynucleotide containing a site-specific 8-oxo-Gua. In control reactions (no inhibitor added), each enzyme generated the expected incised products, confirming the validity of the assay. […] Additionally, experiments were designed to test whether compounds P2, P6, P7, and P8 could inhibit a pyrimidine dimer-specific glycosylase/AP lyase, T4 pyrimidine dimer DNA glycosylase (T4-pdg) that also has an associated AP lyase activity, using an UV-irradiated plasmid nicking assay. […]

wild-type MEFs = experiment: cell survival assay (CellTiter Glo), wild-type MEFs; type: cell-based, mouse; details: WT MEFs, 72 h exposure
Method: Wild-type or Neil1-KO MEFs were plated in a 96-well opaque walled dish (2000 cells/well) and incubated for 18 h to allow for attachment. Inhibitor (80 µL) diluted in DMEM was added to the cells at various concentrations ranging from 0–20 µM, and incubated for an additional 72 h. Cell viability was measured using the CellTiter Glo reagent (Promega, Madison, WI) and was prepared as per the manufacturer's instructions, with 50 µL of the reconstituted reagent added to each well. Cells were incubated for 10 min on an orbital shaker to induce cell lysis. Survival was measured by luminescence on a microplate reader (TECAN) and normalized to no-treatment control.
To experimentally address this question, mouse embryo fibroblasts from wild-type and Neil1 knockout mice were treated with increasing concentrations of P2, P6, P7, and P8. Cell survival was measured after a 72 h exposure. For all four compounds, the 37% survival was greater in the Neil1 knockout cells relative to the wild-type. The D37 ratios for WT: Neil1 were as follows: P2: 6∶10 µM; P6: 5∶8 µM; P7: 12∶15 µM; and P8: 7∶11 µM, respectively. […] In addition to modulating BER, there are potentially many other candidate enzymes that may be compromised by the introduction of these compounds, including but not limited to kinases, DNA and RNA polymerases, other DNA repair complexes or helicases. However, given that the concentrations of these compounds are several orders of magnitude higher than what would be considered as a pharmacologically-relevant dose, detailed mechanistic analyses of the current set of compounds is highly premature. Such studies and the development of appropriate cell culture and animal models will need to be generated concomitantly with the evolution of higher affinity, greater specificity molecules.

[2] = test system: NEIL1, NTH1, OGG1 and FPG; experiment: glycosylase/AP lyase cleavage assays with common substrates (Tg, 8-oxo-Gua) across glycosylases; type: biochemical, human; Escherichia coli (FPG); details: all enzymes except for NTH1
Method: The 384-well fluorogenic assay was carried out in a 20 µL reaction mixture in 20 mM Tris-HCl pH 8.0, 100 mM KCl, and 0.1% BSA, with 5 nM active enzyme and 50 nM substrate. Possible inhibitors were incubated with the enzyme for at least 5 min at room temperature in a black, low-volume 384-well plate before addition of an equal volume of substrate to start the reaction. The plates were spun for 30 s at 1000 rcf to remove bubbles. The reactions were incubated at 37°C and fluorescence data collected on an Infinite M200 (Tecan, Mannedorf, Switzerland) equipped with standard optics (excitation filter 525 nm, and emission filter 598 nm). For the gel-based assay, reactions were initiated as described for the fluorogenic assay, but quenched with 20 µL 95% formamide at 20 min. The products were separated by electrophoresis through a 15% polyacrylamide gel containing 8 M urea and visualized by a Typhoon scanner (GE Life Sciences, Piscataway, NJ). The fraction of cleaved product was measured using ImageQuant software and analyzed using GraphPad Prism 6.
In humans, several glycosylases, including OGG1, NTH1, NEIL2, and NEIL3 may participate in the removal of a wide variety of oxidized bases. […] To address this question, assays were designed to measure inhibition of OGG1 and NTH1, as well as the Escherichia coli glycosylase-AP lyase, FPG. […]

T1 sequence (P04418 whole entry): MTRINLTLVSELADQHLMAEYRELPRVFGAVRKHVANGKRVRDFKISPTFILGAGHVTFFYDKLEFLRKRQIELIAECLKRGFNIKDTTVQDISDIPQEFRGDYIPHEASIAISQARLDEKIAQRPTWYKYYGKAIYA

Structure (SMILES) | inhibition at 40 µM [1] | D37 (37% survival) (wild-type MEFs) | relative inhibition among the compounds [2]
Cc1cc(/C=C/C#N)cc(C)c1Nc1nc(Nc2ccc3scnc3c2)c2nc[nH]c2n1 [Purine P2] | < 1% | 6 µM | 
Cc1nc2ccc(Nc3nc(Nc4c(C)cc(/C=C/C#N)cc4C)nc4[nH]cnc34)cc2s1 [Purine P6] | 32% | 5 µM | 
Cc1cc(/C=C/C#N)cc(C)c1Nc1nc(Nc2ccc3c(c2)CCC3)c2nc[nH]c2n1 [Purine P7] | 13% | 12 µM | 
Cc1cc(/C=C/C#N)cc(C)c1Nc1nc(Nc2ccc3c(c2)OCO3)c2nc[nH]c2n1 [Purine P8] | 14% | 7 µM | poorest inhibition
